Results published in patent EP4806909A1, “GLP-1 COMPOUND, AND PREPARATION METHOD THEREFOR AND USE THEREOF” (Shenzhen Salubris Pharmaceuticals Co., Ltd., priority 2023, dated 2025).

Legend:
[1] = Pharmacokinetic experiment in rats; assay type: in vivo; details: rat, plasma; SD rats, male, intravenous, 0.2 mg/kg, sampling to 72 hours
Procedure: Dulbecco's phosphate buffered saline (DPBS) (Batch No.: F2326001, Shanghai Aladdin Biochemical Technology Co., Ltd.). LC-MS instrument (Thermo TSQ Altis Plus).
SD rats: Male, 180-250g, purchased from Guangdong Vital River Laboratory Animal Technology Co., Ltd.
The test sample powder was accurately weighed and completely dissolved in Dulbecco's phosphate buffered saline free of Ca^2+/Mg^2+, mixed well to obtain a 0.1 mg/mL solution, and administered intravenously at a dose of 2 mL/kg.
After intravenous administration to the rats, approximately 200 µL of venous blood was collected into EDTA-K2 anticoagulant-coated EP tubes pre-dose and post-dose at 0, 0.5, 2, 5, 24, 48, and 72 hours . The blood was centrifuged at 12,000 rpm for 2 minutes. The plasma was collected and stored frozen at -20°C until analysis.
A certain amount of the test sample was accurately weighed and dissolved in DMSO to prepare a 2 mg/mL stock solution. An appropriate amount of the compound stock solution was accurately pipetted and diluted with an acetonitrile-aqueous solution (ACN:H2O=1:1) to prepare a series of standard solutions. […]
After determining the plasma drug concentration by LC-MS, the pharmacokinetic parameters in rats post-administration were calculated using a non-compartmental model with WinNonlin 6.1 software.

[2] = target: T1, GLP-1 receptor (Homo sapiens, UniProt P43220); test: GLP-1 activity assay (cAMP HTRF); assay type: cell-based; details: U20S-GLP-1R stable transfected cell line, 30 minutes at 37°C
T1 construct: expressed in transfected cells
T1 sequence (P43220 24-463, species assumed): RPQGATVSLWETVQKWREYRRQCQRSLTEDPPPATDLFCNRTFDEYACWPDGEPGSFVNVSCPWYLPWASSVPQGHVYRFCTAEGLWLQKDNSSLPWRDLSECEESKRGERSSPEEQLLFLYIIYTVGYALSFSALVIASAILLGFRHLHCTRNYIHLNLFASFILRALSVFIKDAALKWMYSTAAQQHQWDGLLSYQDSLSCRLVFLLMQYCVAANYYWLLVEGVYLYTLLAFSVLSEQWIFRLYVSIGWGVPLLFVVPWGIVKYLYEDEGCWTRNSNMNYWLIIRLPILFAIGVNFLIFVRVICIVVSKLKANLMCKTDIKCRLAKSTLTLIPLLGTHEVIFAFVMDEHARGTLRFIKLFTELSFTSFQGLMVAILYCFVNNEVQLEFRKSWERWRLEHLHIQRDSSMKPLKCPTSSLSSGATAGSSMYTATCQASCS
Procedure: The agonistic effect of the test substance on the GLP-1 receptor was determined using a U20S-GLP-1R stable transfected cell line and a HTRF detection method.
• 1. According to the experimental procedure of the cAMP-Gs Dynamic HTRF kit, the 5x Stimulation buffer (SB) provided in the kit was diluted to 1xSB with ddH2O. IBMX was added to the 1xSB solution to a final concentration of 500 µM to prevent degradation of cAMP. Then, a working solution of the test substance was prepared using 1xSB and subjected to a series of gradient dilutions. • 2. U2OS-GLP-1R cells were digested and collected. After resuspending and counting, the cell density was diluted to 2x10^6 cells/mL using 1xSB solution. Then, 5 µL per well was seeded into a 384-well cell culture plate, resulting in 10,000 cells per well. • 3. The test substances were added at different concentrations into the corresponding cell wells at 5 µL per well, and incubated in a 37°C incubator for 30 minutes. • 4. According to the steps provided by the cAMP-Gs Dynamic HTRF kit, cAMP standard solutions of different concentrations were prepared and added into the 384-well plate. • 5. The cAMP d2 reagent and Eu Cryptate antibody provided in the kit were diluted to 1x using Lysis & Detection Buffer. Then, d2 and Eu solutions were added to the 384-well plate, 5 µL each well. After incubation at room temperature for 2 hours, the plate was read using the HTRF module (665/620 nm) of a microplate reader, and experimental data was collected. • 6. A curve was plotted using the signal value versus the compound concentration. Curve fitting and EC50 calculation were performed using nonlinear regression of GraphPad Prism software. […] Table 2: GLP-1 Activity of the compounds

| AUC(0-t) [1] | EC50 [2] | SMILES |
| --- | --- | --- |
| 101 µg·h/mL | 9.3 nM | CC[C@H](C)[C@H](NC(=O)[C@H](Cc1ccccc1)NC(=O)[C@H](CCC(=O)O)NC(=O)[C@H](CCCCNC(=O)COCCOCCNC(=O)COCCOCCNC(=O)CC[C@H](NC(=O)CCCCCCCCCCCCCCCCC(=O)O)C(=O)O)NC(=O)[C@H](C)NC(=O)[C@H](C)NC(=O)[C@H](CCC(N)=O)NC(=O)CNC(=O)[C@H](CCC(=O)O)NC(=O)[C@H](CC(C)C)NC(=O)[C@H](Cc1ccc(O)cc1)NC(=O)[C@H](CO)NC(=O)[C@H](CO)NC(=O)[C@@H](NC(=O)[C@H](CC(=O)O)NC(=O)[C@H](CO)NC(=O)[C@@H](NC(=O)[C@H](Cc1ccccc1)NC(=O)[C@@H](NC(=O)CNC(=O)[C@H](CCC(=O)O)NC(=O)C(C)(C)NC(=O)[C@H](Cc1c[nH]cn1)NC(=O)CN(CCNC(=O)C[C@H](NC(=O)CCCCCCCCCCCCCCC(=O)O)C(=O)O)C(=O)CN)[C@@H](C)O)[C@@H](C)O)C(C)C)C(=O)N[C@@H](C)C(=O)N[C@@H](Cc1c[nH]c2ccccc12)C(=O)N[C@@H](CC(C)C)C(=O)N[C@H](C(=O)N[C@@H](CCCNC(=N)N)C(=O)NCC(=O)N[C@@H](CCCNC(=N)N)C(=O)NCC(=O)O)C(C)C [Example 2] |
| – | 15.7 nM | CC[C@H](C)[C@H](NC(=O)[C@H](Cc1ccccc1)NC(=O)[C@H](CCC(=O)O)NC(=O)[C@H](CCCCNC(=O)COCCOCCNC(=O)COCCOCCNC(=O)CC[C@H](NC(=O)CCCCCCCCCCCCCCCCC(=O)O)C(=O)O)NC(=O)[C@H](C)NC(=O)[C@H](C)NC(=O)[C@H](CCC(N)=O)NC(=O)CNC(=O)[C@H](CCC(=O)O)NC(=O)[C@H](CC(C)C)NC(=O)[C@H](Cc1ccc(O)cc1)NC(=O)[C@H](CO)NC(=O)[C@H](CO)NC(=O)[C@@H](NC(=O)[C@H](CC(=O)O)NC(=O)[C@H](CO)NC(=O)[C@@H](NC(=O)[C@H](Cc1ccccc1)NC(=O)[C@@H](NC(=O)CNC(=O)[C@H](CCC(=O)O)NC(=O)C(C)(C)NC(=O)[C@H](Cc1c[nH]cn1)NC(=O)CN(CCOCCOCCNC(=O)CC[C@H](NC(=O)CCCCCCCCCCCCCCC(=O)O)C(=O)O)C(=O)CN)[C@@H](C)O)[C@@H](C)O)C(C)C)C(=O)N[C@@H](C)C(=O)N[C@@H](Cc1c[nH]c2ccccc12)C(=O)N[C@@H](CC(C)C)C(=O)N[C@H](C(=O)N[C@@H](CCCNC(=N)N)C(=O)NCC(=O)N[C@@H](CCCNC(=N)N)C(=O)NCC(=O)O)C(C)C [Example 3] |
| – | 16.9 nM | CC[C@H](C)[C@H](NC(=O)[C@H](Cc1ccccc1)NC(=O)[C@H](CCC(=O)O)NC(=O)[C@H](CCCCNC(=O)COCCOCCNC(=O)COCCOCCNC(=O)CC[C@H](NC(=O)CCCCCCCCCCCCCCCCC(=O)O)C(=O)O)NC(=O)[C@H](C)NC(=O)[C@H](C)NC(=O)[C@H](CCC(N)=O)NC(=O)CNC(=O)[C@H](CCC(=O)O)NC(=O)[C@H](CC(C)C)NC(=O)[C@H](Cc1ccc(O)cc1)NC(=O)[C@H](CO)NC(=O)[C@H](CO)NC(=O)[C@@H](NC(=O)[C@H](CC(=O)O)NC(=O)[C@H](CO)NC(=O)[C@@H](NC(=O)[C@H](Cc1ccccc1)NC(=O)[C@@H](NC(=O)CNC(=O)[C@H](CCC(=O)O)NC(=O)C(C)(C)NC(=O)[C@H](Cc1c[nH]cn1)NC(=O)CN(CCOCCOCCNC(=O)C[C@H](NC(=O)CCCCCCCCCCCCCCC(=O)O)C(=O)O)C(=O)CN)[C@@H](C)O)[C@@H](C)O)C(C)C)C(=O)N[C@@H](C)C(=O)N[C@@H](Cc1c[nH]c2ccccc12)C(=O)N[C@@H](CC(C)C)C(=O)N[C@H](C(=O)N[C@@H](CCCNC(=N)N)C(=O)NCC(=O)N[C@@H](CCCNC(=N)N)C(=O)NCC(=O)O)C(C)C [Example 4] |
| 99.3 µg·h/mL | 5.7 nM | CC[C@H](C)[C@H](NC(=O)[C@H](Cc1ccccc1)NC(=O)[C@H](CCC(=O)O)NC(=O)[C@H](CCCCNC(=O)COCCOCCNC(=O)COCCOCCNC(=O)CC[C@H](NC(=O)CCCCCCCCCCCCCCCCC(=O)O)C(=O)O)NC(=O)[C@H](C)NC(=O)[C@H](C)NC(=O)[C@H](CCC(N)=O)NC(=O)CNC(=O)[C@H](CCC(=O)O)NC(=O)[C@H](CC(C)C)NC(=O)[C@H](Cc1ccc(O)cc1)NC(=O)[C@H](CO)NC(=O)[C@H](CO)NC(=O)[C@@H](NC(=O)[C@H](CC(=O)O)NC(=O)[C@H](CO)NC(=O)[C@@H](NC(=O)[C@H](Cc1ccccc1)NC(=O)[C@@H](NC(=O)CNC(=O)[C@H](CCC(=O)O)NC(=O)C(C)(C)NC(=O)[C@H](Cc1c[nH]cn1)NC(=O)CN(CCNC(=O)CC[C@H](NC(=O)CCCCCCCCCCCCCCC(=O)O)C(=O)O)C(=O)[C@@H]1CCCN1)[C@@H](C)O)[C@@H](C)O)C(C)C)C(=O)N[C@@H](C)C(=O)N[C@@H](Cc1c[nH]c2ccccc12)C(=O)N[C@@H](CC(C)C)C(=O)N[C@H](C(=O)N[C@@H](CCCNC(=N)N)C(=O)NCC(=O)N[C@@H](CCCNC(=N)N)C(=O)NCC(=O)O)C(C)C [Example 17] |
